Data from patent US20130302909A1, “ASSESSMENT OF IGF-1 LEVELS IN HIV-INFECTED SUBJECTS AND USES THEREOF” (THERATECHNOLOGIES INC., priority 2011, published 2013).
*: point of attachment. Hexenoyl(3E) = CC/C=C/CC(=O)*

Assays:
serum IGF-1 [1] = assay: Serum IGF-1 level and IGF-1 SDS in HIV patients treated with ThGRF, combined phase 3 studies, main phase (LIPO-010 Main/CTR-1011); format: in vivo, human; details: Week 26; for SDS >2 (%) / SDS >3 (%): HIV+ male normative ranges
From the text: (§1) The IGF-1 normative ranges were derived from two phase 3 clinical studies of treatment with the GRF analog (hexenoyl trans-3)hGRF(1-44)NH2 (also referred to herein as “ThGRF” or “TH9507”). One phase 3 clinical study includes a main phase (6 months) and an extension phase (6 months) in one study (Lipo-010) and the second phase 3 clinical study includes two studies. CTR-1011 was the main phase (first 6 months) and CTR-1012 was the extension phase (last 6 months).
(§2) The IGF-1 data at baseline of all male patients from studies Lipo-010 and CTR-1011 were combined. Loge transformation was applied. […] The level of IGF-1 in the serum samples was determined using a blocking RIA assay. The IGF-1 blocking RIA assay is a competitive binding radioimmunoassay. It utilizes rabbit polyclonal antisera specific for IGF-1 as the primary antibody and radioiodinated recombinant human IGF-1 as tracer. Serum IGF-1 is first separated from binding proteins by acid ethanol extraction. The extracts (controls and unknown/test samples) and standard are incubated with primary antibody and tracer. Free IGF-1 present in the extracts competes with and displaces the tracer from primary antibody. A second antibody specific for rabbit immunoglobulin is added to precipitate the immunocomplexes, which are then separated from free reactants by centrifugation. The amount of radioactivity present in the precipitated immunocomplex is measured with a gamma counter and is inversely related to the concentration of IGF-1 present in the sample. The amount of tracer bound to the immunocomplexes formed in the calibrator samples (purified recombinant human IGF-1) is used to establish a dose response standard curve from which the IGF-1 concentration of controls and unknown samples are back calculated.
(§3) During clinical studies of the treatment of HIV subjects with ThGRF, initial analyses of IGF-I values of the HIV subjects was performed using a typical IGF-I determination, in which age- and gender-specific means and SD values were utilized for the calculation of the standard deviation scores (SDS). These values were derived from a relatively small cohort of healthy adults and were established assuming a Normal distribution (without any transformation of the measured IGF-1 values). As such, determination of the normative IGF-1 range was initially performed based on age- and gender-matched healthy (i.e., non-HIV) subjects, without any transformation of the measured raw IGF-1 values, referred to herein below as the “typical method” or “typical approach”.
(§4) The IGF-1 SDS were recalculated based on the means and standard deviations calculated from HIV patients (from all male patients in the above-noted clinical studies at baseline per age group as presented in Table III above, assuming a Normal distribution). The results are presented in Table IV for the main phase and the extension phase.
(§5) The calculations above (based on “healthy”, typical normative ranges or using normative ranges based on IGF-1 levels in HIV subjects) were all done assuming a Normal distribution of the IGF-1 levels. However, it was noted that the distribution of the IGF-1 levels at baseline for the patients in the phase 3 clinical studies is “Lognormal” rather than “Normal”. Thus, the means and standard deviations were recalculated using the natural log(loge or In) of IGF-1 and then calculated IGF-1 SDS using the lognormal scale, i.e. [(natural log IGF-1) minus (mean) divided by (standard deviation)]. The results using lognormal distributions are presented in Table V for the main phase and the extension phase. Importantly, the percent of patients at baseline and those treated with placebo is now much closer to expected and in addition, the % of ThGRF-treated patients being larger than +2 and +3 SDS using the lognormal distribution and the HIV population normative ranges are substantially lower than that seen using the uncorrected SDS calculators.

serum IGF-1 [2] = assay: Serum IGF-1 SDS in HIV patients treated with ThGRF, combined phase 3 studies, extension phase (LIPO-010 Extension/CTR-1012); format: in vivo, human; details: for SDS >2 (%) / SDS >3 (%): HIV+ male normative ranges, percent of patients
From the text: as §1, §2, §3, §4, §5

[3] = 2 mg/day, Log-Normal distribution, percent of patients
[4] = 2 mg/day, Normal distribution, percent of patients
[5] = 2 mg/day, typical approach, percent of patients
[6] = Week 27, T-P group, Log-Normal distribution
[7] = Week 27, T-P group, Normal distribution
[8] = Week 27, T-T group, Log-Normal distribution
[9] = Week 27, T-T group, Normal distribution
[10] = Week 52, T-P group, Log-Normal distribution
[11] = Week 52, T-P group, Normal distribution
[12] = Week 52, T-T group, Log-Normal distribution
[13] = Week 52, T-T group, Normal distribution
[14] = Week 52, typical approach and healthy normative ranges

Substance: (hexenoyl trans-3)hGRF(1-44)NH2 ({Hexenoyl(3E)}-YADAIFTNSYRKVLGQLSARKLLQDIMSRQQGESNQERGARARL-NH2) [ThGRF]
- SDS >2 (%) (serum IGF-1 [1]; [3]): 30.1%
- SDS >3 (%) (serum IGF-1 [1]; [3]): 7.4%
- SDS >2 (%) (serum IGF-1 [1]; [4]): 41.2%
- SDS >3 (%) (serum IGF-1 [1]; [4]): 25.4%
- IGF-1 SDS Mean (SD) (serum IGF-1 [1]; 2 mg/day, typical approach (healthy normative ranges, Normal distribution)): 2.4 (2.85)
- SDS >+2 (%) (serum IGF-1 [1]; [5]): 47.4%
- SDS >+3 (%) (serum IGF-1 [1]; [5]): 35.6%
- IGF-1 level Mean (SD) (serum IGF-1 [1]; ThGRF 2 mg/day): 262 (123.6) ng/ml
- SDS >2 (%) (serum IGF-1 [2]; [6]): 28.8%
- SDS >3 (%) (serum IGF-1 [2]; [6]): 5.3%
- SDS >2 (%) (serum IGF-1 [2]; [7]): 40.2%
- SDS >3 (%) (serum IGF-1 [2]; [7]): 21.2%
- SDS >2 (%) (serum IGF-1 [2]; [8]): 32.6%
- SDS >3 (%) (serum IGF-1 [2]; [8]): 7.6%
- SDS >2 (%) (serum IGF-1 [2]; [9]): 44.5%
- SDS >3 (%) (serum IGF-1 [2]; [9]): 29.2%
- SDS >2 (%) (serum IGF-1 [2]; [10]): 0.0%
- SDS >3 (%) (serum IGF-1 [2]; [10]): 0.0%
- SDS >2 (%) (serum IGF-1 [2]; [11]): 1.1%
- SDS >3 (%) (serum IGF-1 [2]; [11]): 0.0%
- SDS >2 (%) (serum IGF-1 [2]; [12]): 19.5%
- SDS >3 (%) (serum IGF-1 [2]; [12]): 5.8%
- SDS >2 (%) (serum IGF-1 [2]; [13]): 27.9%
- SDS >3 (%) (serum IGF-1 [2]; [13]): 16.3%
- ThGRF-treated patients larger than +2 SDS (serum IGF-1 [2]; [14]): 33.7%
- ThGRF-treated patients larger than +3 SDS (serum IGF-1 [2]; [14]): 22.6%
